Measurements reported in patent US20100056445A1, “ADIPONECTIN FOR THE TREATMENT AND DIAGNOSIS OF ALBUMINURIA” (THOMAS JEFFERSON UNIVERSITY, priority 2006, published 2010).
“Also recorded” adds a separate entry of the source.

Assays:
[1] = tested on: Adiponectin KO (Ad−/−) mice; test: Urine albumin/creatinine ratio in treated adiponectin KO mice; format: in vivo, mouse; conditions: Ad−/− mice at 4 months of age
Procedure: Adiponectin administration and animal studies: The mice were treated with 25 μg of recombinant human globular domain adiponectin (gAd; PepROTech, Rocky Hill, N.J.) subcutaneously twice daily for 10 consecutive days. The control animals were given PBS alone. 24-hour urines from each mouse were collected twice: one week before the injections and on the last day of the injections. The urine albumin and creatinine were measured with a mouse Albuwell ELISA kit and a Creatinine Companion kit (Exocell, Philadelphia, Pa.) (25,26). The mice were sacrificed five hours after the final gAd injection under anesthesia. Portions of kidney cortex were fixed in buffered formalin and embedded in paraffin. A portion of kidney cortical tissue was cut into 1 mm^3 pieces and fixed in 2.5% glutaraldehyde
(§1) Interventional animal studies: The mice were treated with 25 μg of recombinant human globular domain adiponectin gAd (PepROTech, Rocky Hill, N.J.), administered 25 μg/mouse twice a day for 10 consecutive days or full-length adiponectin (fAd) was administered using an AAV vector (AAV2/8 CMV fAd virus 4×1011 GC/mouse for 10 days). A separate group of Ad−/− mice were treated with 5-aminoimidazole-4-carboxamide-1-beta-D-ribonucleoside (AICAR) with a single i.p. dose of 300 mg/kg. The control animals were given PBS alone or control AAV. 24-hour urines from each mouse were collected before treatment and on the last day of the treatment period. The urine albumin and creatinine were measured with a mouse Albuwell ELISA kit and a Creatinine Companion kit (Exocell, Philadelphia, Pa.) (26, 25). As an index of oxidant stress timed urine collections were also analyzed for hydrogen peroxide by Amplex red assay (Invitrogen/Molecular Probes, Carlsbad, Calif.) following the manufacturer's protocol. Portions of liver, muscle and kidney was snap-frozen in liquid nitrogen for RNA isolation. An additional aliquot of normal kidney was frozen in OCT for immunofluorescent staining. […]

Nox4 = Nox4 protein in cultured podocytes (immunoblot, confocal); format: cell-based, mouse; conditions: AICAR; podocytes grown in high glucose (HG)
Ad−/− mice = test: Urinary hydrogen peroxide (Amplex red) in Ad−/− mice; format: in vivo, mouse; conditions: 4 month-old Ad−/− mice
Procedure: as §1

podocyte monolayer = test: Albumin permeability across differentiated podocyte monolayer (Transwell); format: cell-based, mouse; conditions: for Albumin permeability across podocyte monolayer: 1 mM; for Effect on the protective effect of adiponectin on podocyte permeability: ARA-A 1 mM pre-treatment prior to addition of adiponectin; for Permeability of albumin across a podocyte monolayer: adiponectin (globular or full length) 3 μg/ml, serum free, vs. control
Procedure: Podocyte cell culture: Conditionally immortalized mouse podocytes were kindly provided by Dr. Peter Mundel (Albert Einstein College of Medicine, Bronx, N.Y.) and were cultured as previously described (27). The cells harbor a temperature-sensitive variant of the SV40 large T antigen (tsA58) that is inducible by γ-interferon and stable at 33° C. but rapidly degraded at 37° C. (27). At 33° C., the large T antigen allows for cellular proliferation. The proliferating cells are maintained in collagen I—coated flasks in RPMI-1640 media supplemented with 10% FBS and 10 units/ml mouse recombinant γ-interferon. When the cells have reached confluence, they are passaged and allowed to differentiate at 37° C. for 8-10 days without γ-interferon in Dulbecco's modified Eagle's medium containing 5.5 mmol/l glucose and 5% FCS. For the permeability assay a modification of a previously published protocol (28) was adopted. Differentiated podocytes (0.2×10^6 podocytes/well) plated on collagen coated 24 well Transwell plates (Corning) were serum-starved ovenight when confluent. Cells were then modulated with globular adiponectin (PepROTech Inc.) with or without 1 mM adenosine 9-p-D-arabinofuranoside (ARA-A) (Sigma, St. Louis, Mo.), for 24 h. Cells were then washed twice with PBS supplemented with 1 mM MgCl2 and 1 mM CaCl2. The upper compartment was refilled with 0.25 ml RPMI 1640 alone and the lower compartment with 0.5 ml RPMI 1640 supplemented with 40 mg/ml BSA and incubated for 2 hour at 37° C. Total protein concentration in the upper compartment was determined using a Bio-Rad protein assay (Bio-Rad Laboratories, Hercules, Calif.).

## NC(=O)c1ncn([C@@H]2O[C@H](CO)[C@@H](O)[C@H]2O)c1N [AICAR, 5-aminoimidazole-4-carboxamide-1-beta-D-ribonucleoside, reference compound]
[1]; AICAR single i.p. dose of 300 mg/kg, 300 mg/kg
  Urine albumin/creatinine ratio (albuminuria): restored albuminuria; also recorded: significantly decreased urine albumin/creatinine to the control values seen in WT mice
Nox4
  Podocyte Nox4 protein: reduced Nox4 protein levels to a similar degree as adiponectin
Ad−/− mice; AICAR single i.p. dose of 300 mg/kg
  Urinary levels of hydrogen peroxide: reduced
Podocyte monolayer; AMPK activator AICAR
  Albumin permeability across podocyte monolayer: decreased

## Nc1ncnc2c1ncn2[C@@H]1O[C@H](CO)[C@@H](O)[C@@H]1O [ARA-A, adenosine 9-p-D-arabinofuranoside]
Podocyte monolayer; AMPK inhibitor ARA-A alone
  Albumin permeability across podocyte monolayer: increased permeability to albumin
Podocyte monolayer; AMPK inhibitor ARA-A alone, listed as ARA
  Albumin permeability across podocyte monolayer: increased
Podocyte monolayer
  Effect on the protective effect of adiponectin on podocyte permeability: prevented the protective effects of adiponectin on podocyte permeability; also recorded: increased permeability to albumin; also recorded: blocked protective effect of adiponectin
Podocyte monolayer; listed as ARA
  Effect on the protective effect of adiponectin on podocyte permeability: blocked

B1: fAd: full-length adiponectin; in mice administered using an AAV vector (AAV2/8 CMV fAd virus) (protein, listed as Homo sapiens)
chain: MLLLGAVLLLLALPGHDQETTTQGPGVLLPLPKGACTGWMAGIPGHPGHNGAPGRDGRDGTPGEKGEKGDPGLIGPKGDIGETGVPGAEGPRGFPGIQGRKGEPGEGAYVYRSAFSVGLETYVTIPNMPIRFTKIFYNQQNHYDGSTGKFHCNIPGLYYFAYHITVYMKDVKVSLFKKDKAMLFTYDQYQENNVDQASGSVLLHLEVGDQVWLQVYGEGERNGLYADNDNDSTFTGFLLYHDTN
modifications: delivered via AAV2/8 CMV vector
[1]; fAd by AAV vector, 10 days
  Urine albumin/creatinine ratio (albuminuria): significantly decreased urine albumin/creatinine to the control values seen in WT mice
Ad−/− mice; fAd by AAV vector, 10 days
  Urinary levels of hydrogen peroxide: reduced
Podocyte monolayer
  Permeability of albumin across a podocyte monolayer: reduced
Podocyte monolayer; listed as full length adiponectin
  Permeability of albumin across a podocyte monolayer: significantly reduced
